Measurements as given in patent US20260344661A1, “USE OF AN ALKYLETHER SULFATE FOR IMPROVING THE EFFICACY OF HERBICIDES” (BASF SE, priority 2022, published 2026).

Columns and labels:
HORVW (winter barley) = assay: Greenhouse post-emergence weed control, damage vs untreated (HORVW); format: in vivo, Hordeum vulgare; settings: 20 DAT
ECHCG (barnyardgrass) = assay: Greenhouse post-emergence weed control, damage vs untreated (ECHCG); format: in vivo, Echinochloa crus-galli
Method: (§1) A greenhouse study was conducted to evaluate the effect of the alkylether sulfates of formula (I) and other adjuvants on the weed control efficacy of glufosinate. Seedlings of grass plants (AVEFA, ECHCG, DIGSA and SETVI) and broadleaf weeds (KCHSC, CHEAL, AMAPA, AMATA and ABUTH) were grown to a height of 3 to 20 cm, depending on the plant habit in 10×10×10 cm pots filled with sandy planting soil (Limburgerhof soil). The weeds were treated with postemergence applications of glufosinate ammonium at the respective application rates given in the following tables, either alone or combined with various amounts of the respective adjuvants.
(§2) For this, the herbicide formulation and the respective adjuvant were introduced into tap water to obtain the spray liquor. […] The spray liquor was then applied to the plant a spray volume of 200 l/ha using a sprayer (XR Teejet 110015).
(§3) The test period extended over 21 days. During this time, the plants were tended, and their response to the treatments with active compound was evaluated.
(§4) The evaluation for the damage caused by the chemical compositions was carried out using a scale from 0 to 100%, compared to the untreated control plants. Here, 0 means no damage and 100 means complete destruction of the plants.
(§5) The plants used in the greenhouse experiments belonged to the following species:
(§6) The results are summarized in the following tables 1 to 15 that show the applied doses of the individual actives as gram of active ingredient per hectare (g ai/ha), the herbicidal activity of the individual […]

DIGSA (large crabgrass) = assay: Greenhouse post-emergence weed control, damage vs untreated (DIGSA); format: in vivo, Digitaria sanguinalis; settings: 20 DAT
Method: as §1, §2, §3, §4
(§7) The plants used in the greenhouse experiments belonged to the following species: […]

SETVI (green foxtail) = assay: Greenhouse post-emergence weed control, damage vs untreated (SETVI); format: in vivo, Setaria viridis
Method: as §1, §2, §3, §4, §5, §6

[1] = test system: Øgras (average value of AVEFA, ECHCG, DIGSA and SETVI); assay: Greenhouse post-emergence weed control, average over grasses (Øgras); format: in vivo
Method: as §1, §2, §3, §4, §5, §6

CHEAL (lambsquarter) = assay: Greenhouse post-emergence weed control, damage vs untreated (CHEAL); format: in vivo, Chenopodium album
Method: as §1, §2, §3, §4, §5, §6

AMAPA (palmer amaranth) = assay: Greenhouse post-emergence weed control, damage vs untreated (AMAPA); format: in vivo, Amaranthus palmeri; settings: 20 DAT
Method: as §1, §2, §3, §4, §5
(§8) The results are summarized in the following tables 1 to 15 that show the applied doses of the individual actives as gram of active ingredient per hectare (g ai/ha), the herbicidal activity of the individual actives and of their combinations in post-emergence application assessed 14 and 28 day after treatment (DAT), respectively.

[2] = test system: AMATA (common water hemp); assay: Greenhouse post-emergence weed control, damage vs untreated (AMATA); format: in vivo, Amaranthus tuberculatus; settings: 20 DAT
Method: as §1, §2, §3, §4, §5, §8

ABUTH (velvetleaf) = assay: Greenhouse post-emergence weed control, damage vs untreated (ABUTH); format: in vivo, Abutilon theophrasti; settings: 20 DAT
Method: as §1, §2
[…] During this time, the plants were tended, and their response to the treatments with active compound was evaluated.
as §4, §7

[3] = test system: ØBLV (average value of KCHSC, CHEAL, AMAPA, AMATA and ABUTH); assay: Greenhouse post-emergence weed control, average over broadleaf weeds (ØBLV); format: in vivo; settings: 20 DAT
Method: as §1, §2, §3, §4, §5, §8

HORVS (spring barley) = assay: Greenhouse post-emergence weed control, damage vs untreated (HORVS); format: in vivo; settings: 20 DAT
TRZAS (spring wheat) = assay: Greenhouse post-emergence weed control, damage vs untreated (TRZAS); format: in vivo, Soft wheat (spring)
AMATU (tall waterhemp) = assay: Greenhouse post-emergence weed control, damage vs untreated (AMATU); format: in vivo, Amaranthus tuberculatus; settings: 20 DAT
Method: as §1, §2, §3, §4, §5, §8

[4] = test system: ØBLV = Σ % activity (CHEAL + KCHSC + AMATU + ABUTH)/4; assay: Greenhouse post-emergence weed control, average over broadleaf weeds (ØBLV, Tables 16-20); format: in vivo; settings: average of CHEAL
[5] = 5 g ai/ha L-glufosinate (so in the source), no adjuvant
[6] = 37.5 g ai/ha L-glufosinate, adjuvant g ai/ha: none (CE1-B), 56 (IE2-A), 62.125 (IE2-B), 51.625 (CE2-F)
[7] = 150 g ai/ha L-glufosinate, adjuvant g ai/ha: none (CE1-B), 223 (IE2-A), 248.5 (IE2-B), 206.5 (CE2-F)
[8] = 300 g ai/ha L-glufosinate, adjuvant g ai/ha: none (CE1-B), 446 (IE2-A), 497 (IE2-B), 413 (CE2-F)
[9] = g ai/ha: 42.375 solo (CE1-C), 42.375 + 66.97 combined (IE3-A/B/C, CE2-J)
[10] = g ai/ha: 84.75 solo (CE1-C), 84.75 + 133.94 combined (IE3-A/B/C, CE2-J)
[11] = g ai/ha: 169.5 solo (CE1-C), 169.5 + 267.89 combined (IE3-A/B/C, CE2-J)
[12] = g ai/ha: 339 solo (CE1-C), 339 + 535.77 combined (IE3-A/B/C, CE2-J)

CP(=O)(O)CC[C@H](N)C(=O)O.N [CE1-B, ammonium (2S)-2-amino-4-(methylphosphinato)butyric acid]
% activity (HORVW (winter barley); [5]): 0%
% activity (HORVW (winter barley); [6]): 5%
% activity (HORVW (winter barley); [7]): 5%
% activity (HORVW (winter barley); [8]): 15%
% activity (ECHCG (barnyardgrass); [5]): 0%
% activity (ECHCG (barnyardgrass); [6]): 0%
% activity (ECHCG (barnyardgrass); [7]): 20%
% activity (ECHCG (barnyardgrass); [8]): 60%
% activity ECHCG (ECHCG (barnyardgrass); [9]): 0%
% activity ECHCG (ECHCG (barnyardgrass); [10]): 3%
% activity ECHCG (ECHCG (barnyardgrass); [11]): 3%
% activity ECHCG (ECHCG (barnyardgrass); [12]): 20%
% activity (DIGSA (large crabgrass); [5]): 0%
% activity DIGSA (DIGSA (large crabgrass); [9]): 5%
% activity DIGSA (DIGSA (large crabgrass); [10]): 15%
% activity DIGSA (DIGSA (large crabgrass); [11]): 55%
% activity DIGSA (DIGSA (large crabgrass); [12]): 70%
% activity (DIGSA (large crabgrass); [6]): 0%
% activity (DIGSA (large crabgrass); [7]): 30%
% activity (DIGSA (large crabgrass); [8]): 40%
% activity (SETVI (green foxtail); [5]): 98%
% activity (SETVI (green foxtail); [6]): 85%
% activity (SETVI (green foxtail); [7]): 98%
% activity (SETVI (green foxtail); [8]): 95%
% activity (Øgras) [1, 5]: 26%
% activity (Øgras) [1, 6]: 21%
% activity (Øgras) [1, 7]: 40%
% activity (Øgras) [1, 8]: 54%
% activity (CHEAL (lambsquarter); [5]): 0%
% activity (CHEAL (lambsquarter); [6]): 0%
% activity (CHEAL (lambsquarter); [7]): 0%
% activity (CHEAL (lambsquarter); [8]): 15%
% activity CHEAL (CHEAL (lambsquarter); [9]): 0%
% activity CHEAL (CHEAL (lambsquarter); [10]): 0%
% activity CHEAL (CHEAL (lambsquarter); [11]): 5%
% activity CHEAL (CHEAL (lambsquarter); [12]): 10%
% activity (AMAPA (palmer amaranth); [5]): 60%
% activity (AMAPA (palmer amaranth); [6]): 98%
% activity (AMAPA (palmer amaranth); [7]): 98%
% activity (AMAPA (palmer amaranth); [8]): 98%
% activity [2, 5]: 95%
% activity [2, 6]: 20%
% activity [2, 7]: 98%
% activity [2, 8]: 98%
% activity (ABUTH (velvetleaf); [5]): 10%
% activity ABUTH (ABUTH (velvetleaf); [9]): 5%
% activity ABUTH (ABUTH (velvetleaf); [11]): 30%
% activity ABUTH (ABUTH (velvetleaf); [12]): 68%
% activity (ABUTH (velvetleaf); [6]): 10%
% activity (ABUTH (velvetleaf); [7]): 30%
% activity (ABUTH (velvetleaf); [8]): 60%
% activity (ØBLV) [3, 5]: 34%
% activity (ØBLV) [3, 6]: 26%
% activity (ØBLV) [3, 7]: 46%
% activity (ØBLV) [3, 8]: 56%
% activity HORVS (HORVS (spring barley); [9]): 0%
% activity HORVS (HORVS (spring barley); [10]): 0%
% activity HORVS (HORVS (spring barley); [11]): 0%
% activity HORVS (HORVS (spring barley); [12]): 10%
% activity TRZAS (TRZAS (spring wheat); [9]): 0%
% activity TRZAS (TRZAS (spring wheat); [10]): 0%
% activity TRZAS (TRZAS (spring wheat); [11]): 5%
% activity TRZAS (TRZAS (spring wheat); [12]): 5%
% activity AMATU (AMATU (tall waterhemp); [9]): 23%
% activity AMATU (AMATU (tall waterhemp); [10]): 75%
% activity AMATU (AMATU (tall waterhemp); [11]): 45%
% activity AMATU (AMATU (tall waterhemp); [12]): 97%
% activity (ØBLV) [4, 9]: 8%
% activity (ØBLV) [4, 10]: 26%
% activity (ØBLV) [4, 11]: 27%
% activity (ØBLV) [4, 12]: 53%
